According to patent US5753709A, “N-acyl-2 aryl cyclopropylmethylamine derivatives as melatonergics” (Bristol-Myers Squibb Company, priority 1996, dated 1998):

Target: T1, human melatonin receptor (human ML1A) (Homo sapiens, UniProt P48039)
T1 construct: expressed in transfected cells; host or cells: COS-1 cells (transient, pcDNAI, DEAE-dextran); membrane homogenates
Test: Melatonergic binding: displacement of 2-[125I]-iodomelatonin at the human melatonin receptor (human ML1A in COS-1 membranes)
Details: Table 4; displacement of 2[125I]-Iodomelatonin (100 pM), 37° C., 1 hour
Experimental: The melatonergic binding of the compounds of Formula I was determined by a modification of the method of Reppert, S. M. et al. (Neuron, Volume 13, pages 1177-1185, 1994). […] The reagents, membranes, and other parameters used in the assay are described below:
(a) 50 mM Tris buffer containing 12.5 mM MgCl2, and 2 mM EDTA (pH 7.4 at 37° C.).
(b) Wash buffer: 20 mM Tris base containing 2 mM MgCl2 (pH 7.4 at room temperature).
(c) 6-Chloromelatonin (10^-5 M final concentration).
(d) 2-[^125 I]-Iodomelatonin (100 pM final concentration). (Source: NEN) Membrane preparation: The cDNA (human ML1A) in pcDNAI was introduced into COS-1 cells by the DEAE-dextran method. Three days later, after media removal, the plates were washed with buffered saline; the cells removed using Hank's balanced salt solution and pelleted. The supernant was discarded and the pellets frozen. For membrane homogenates, the pellets were thawed and resuspended in TME buffer, Tris base, MgCl2, EDTA (pH 7.4 at 37° C.), and supplemented with aprotinin, leupeptin, and phenylmethylsulfonyl fluoride. The cells were homogenized and centrifuged; the resulting pellet resuspended in TME and frozen. At assay, the small aliquot was thawed on ice and resuspended in TME buffer. Incubation: 37° C. for 1 hour. Reaction is terminated by filtration.

T1 sequence (P48039 whole entry): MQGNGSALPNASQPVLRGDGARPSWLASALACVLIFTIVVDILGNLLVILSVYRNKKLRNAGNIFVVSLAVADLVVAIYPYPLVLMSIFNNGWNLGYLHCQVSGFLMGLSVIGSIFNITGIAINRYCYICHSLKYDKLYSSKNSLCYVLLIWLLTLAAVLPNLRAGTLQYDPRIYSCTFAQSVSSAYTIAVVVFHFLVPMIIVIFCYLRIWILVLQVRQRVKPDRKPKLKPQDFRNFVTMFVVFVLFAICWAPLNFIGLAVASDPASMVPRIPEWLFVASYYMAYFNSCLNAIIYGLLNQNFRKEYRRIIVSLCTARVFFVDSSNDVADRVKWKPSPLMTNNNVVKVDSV

Row | Compound | IC50
1 | COc1ccc(F)c([C@@H]2C[C@H]2CNC(=O)C(C)C)c1 (relative stereo) [Example 1, (trans)-N-[[2-(2-Fluoro-5-methoxyphenyl)cyclopropyl]methyl]-2-methylpropanamide] | 40 to 250 nM
2 | CCCC(=O)NC[C@@H]1C[C@H]1c1cc(OC)ccc1I (relative stereo) [Example 4, (trans)-N-[[2-(2-Iodo-5-methoxyphenyl)cyclopropyl]methyl]butanamide] | < 5 nM
3 | CCCC(=O)N(Cc1ccccc1)C[C@@H]1C[C@H]1c1cccc(OC)c1 (relative stereo) [Example 6, (trans)-N-[[2-(3-Methoxyphenyl)cyclopropyl]methyl]-N-(phenylmethyl) butanamide] | 40 to 250 nM
4 | CCC(=O)NC[C@@H]1C[C@H]1c1cccc(OC)c1 (relative stereo) [Example 18, (trans)-N-[[2-(3-Methoxyphenyl)cyclopropyl]methyl] propanamide] | < 5 nM
5 | COc1cccc([C@@H]2C[C@H]2CNC(C)=O)c1 (relative stereo) [Example 19, (trans)-N-[[2-(3-Methoxyphenyl)cyclopropyl]methyl] acetamide] | 5 to 40 nM
6 | COCC(=O)NC[C@@H]1C[C@H]1c1cccc(OC)c1 (relative stereo) [Example 20, (trans)-N-[[2-(3-Methoxyphenyl)cyclopropyl]methyl]-2-methoxyacetamide] | 5 to 40 nM
7 | COc1cccc([C@@H]2C[C@H]2CNC(=O)C(C)C)c1 (relative stereo) [Example 21] | 5 to 40 nM

More lines, now with the values ahead:

Row | IC50 | Compound
8 | < 5 nM | CCCC(=O)NC[C@@H]1C[C@H]1c1cccc(OC)c1 (relative stereo) [Example 2, (trans)-N-[[2-(3-Methoxyphenyl)cyclopropyl]methyl] butanamide]
9 | 40 to 250 nM | CCCCC(=O)NC[C@@H]1C[C@H]1c1cccc(OC)c1 (relative stereo) [Example 25]

Same assay, conditions: Table 5; displacement of 2[125I]-Iodomelatonin (100 pM), 37° C., 1 hour

Row | Compound | IC50
10 | CCCC(=O)NC[C@@H]1C[C@H]1c1cccc(O)c1 (relative stereo) [Example 7a, (trans)-N-[[2-(3-Hydroxyphenyl)cyclopropyl]methyl] butanamide] | 250 to 600 nM
11 | CCCC(=O)NC[C@@H]1C[C@H]1c1cccc(OCCCC#Cc2ccccc2)c1 (relative stereo) [Example 47] | 250 to 600 nM
12 | CCCC(=O)NC[C@@H]1C[C@H]1c1cccc(OCCc2ccccc2)c1 (relative stereo) [Example 60, (trans)-N-[[2-[3-[(2-Phenylethyl)oxy]phenyl]cyclopropyl]methyl] butanamide] | 5 to 40 nM
13 | CCCC(=O)NC[C@@H]1C[C@H]1c1cccc(OCCCc2cccc(OC)c2)c1 (relative stereo) [Example 62, (trans)-N-[[2-[3-[3-(3-Methoxyphenyl)propoxy]phenyl]cyclopropyl]methyl] butanamide] | 5 to 40 nM
14 | CCCC(=O)NC[C@@H]1C[C@H]1c1cccc(OCCCc2ccncc2)c1 (relative stereo) [Example 63] | 40 to 250 nM
15 | CCCC(=O)NC[C@@H]1C[C@H]1c1cc(OC(F)(F)F)ccc1Br (relative stereo) [Example 72] | 40 to 250 nM
16 | CCCC(=O)NC[C@@H]1C[C@H]1c1cccc(Br)c1 (relative stereo) [Example 73, (trans)-N-[[2-(3-Bromophenyl)cycloprop-1-yl]methyl] butanamide] | 5 to 40 nM
17 | CCCC(=O)NC[C@@H]1C[C@H]1c1cccc(C)c1 (relative stereo) [Example 75, (trans)-N-[[2-(3-Methylphenyl)cycloprop-1-yl]methyl] butanamide] | 5 to 40 nM
18 | CC(=O)NC[C@@H]1C[C@H]1c1cccc(C)c1 (relative stereo) [Example 78, (trans)-N-[[2-(3-Methylphenyl)cycloprop-1-yl]methyl] acetamide] | 40 to 250 nM
19 | CCCC(=O)NC[C@@H]1C[C@H]1c1cccc(Cl)c1 (relative stereo) [Example 80, (trans)-N-[[2-(3-Chlorophenyl)cycloprop-1-yl]methyl] butanamide] | 5 to 40 nM
20 | CCCC(=O)NC[C@@H]1C[C@H]1c1cc(F)ccc1F (relative stereo) [Example 87, (trans)-N-[[2-(2,5-Difluorophenyl)cycloprop-1-yl]methyl] butanamide] | 40 to 250 nM
21 | CCCC(=O)NC[C@@H]1C[C@H]1c1cccc(OCCCc2ccccc2)c1 (relative stereo) [Example 95, (trans)-N-[[2-[3[(3-Phenylprop-1-yl)oxy]phenyl]cycloprop-1-yl]methyl] butanamide] | 5 to 40 nM
22 | CCCC(=O)NC[C@@H]1C[C@H]1c1cccc(OCCCOc2ccccc2)c1 (relative stereo) [Example 96, (trans)-N-[[2-[3[(3-Phenoxyprop-1-yl)oxy]phenyl]cycloprop-1-yl]methyl] butanamide] | 5 to 40 nM
23 | CCCC(=O)NC[C@@H]1C[C@H]1c1cccc(OCC=C(C)CCC=C(C)C)c1 (relative stereo) [Example 99, (trans)-N-[[2-[3[(3-Dimethylocta-2,6-dien-1-yl)oxy]phenyl]cycloprop-1-yl]methyl] butanamide] | 5 to 40 nM
24 | CCCC(=O)NC[C@@H]1C[C@H]1c1cccc(OCC=C(C)CCC=C(C)CCC=C(C)C)c1 (relative stereo) [Example 103, (trans)-N-[[2-[3-[(3-,7,11-Trimethyldodeca-2,6,10-trien-1-yl)oxy]phenyl]cycloprop-1-yl]methyl] butanamide] | < 5 nM

Other lines, results leading:

Row | IC50 | Compound
25 | 5 to 40 nM | C=CCOc1cccc([C@@H]2C[C@H]2CNC(=O)CCC)c1 (relative stereo) [Example 7b, (trans)-N-[[2-[3-(2-Propenyloxy)phenyl]cyclopropyl]methyl] butanamide]
26 | 40 to 250 nM | CCCC(=O)NC[C@@H]1C[C@H]1c1cccc(OCCO)c1 (relative stereo) [Example 15]
27 | 40 to 250 nM | CCCC(=O)NC[C@@H]1C[C@H]1c1cccc(OCCCCCCc2ccccc2)c1 (relative stereo) [Example 45]
28 | 5 to 40 nM | CCCC(=O)NC[C@@H]1C[C@H]1c1cccc(OCCCCCCCc2ccccc2)c1 (relative stereo) [Example 46, (trans)-N-[[2-[3-[(7-Phenylheptyl)oxy]phenyl]cyclopropyl]methyl] butanamide]
29 | 5 to 40 nM | CCCC(=O)NC[C@@H]1C[C@H]1c1cccc(OCC)c1 (relative stereo) [Example 48]
30 | 40 to 250 nM | CCCCCCCOc1cccc([C@@H]2C[C@H]2CNC(=O)CCC)c1 (relative stereo) [Example 53, (trans)-N-[[2-[3-(Heptyloxy)phenyl]cyclopropyl]methyl] butanamide]
31 | 5 to 40 nM | CCCCCCCCOc1cccc([C@@H]2C[C@H]2CNC(=O)CCC)c1 (relative stereo) [Example 54, (trans)-N-[[2-[(3-Octyloxy)phenyl]cyclopropyl]methyl] butanamide]
32 | 40 to 250 nM | CCCCCCCCCOc1cccc([C@@H]2C[C@H]2CNC(=O)CCC)c1 (relative stereo) [Example 55, (trans)-N-[[2-[3-(Nonyloxy)phenyl]cyclopropyl]methyl] butanamide]
33 | 5 to 40 nM | CCCCCCCCCCOc1cccc([C@@H]2C[C@H]2CNC(=O)CCC)c1 (relative stereo) [Example 56, (trans)-N-[[2-[(3-Decyloxy)phenyl]cyclopropyl]methyl] butanamide]
34 | 5 to 40 nM | CCCCCCCCCCCOc1cccc([C@@H]2C[C@H]2CNC(=O)CCC)c1 (relative stereo) [Example 57, (trans)-N-[[2-[(3-Undecyloxy)phenyl]cyclopropyl]methyl] butanamide]
35 | 5 to 40 nM | CCCCCCCCCCCCOc1cccc([C@@H]2C[C@H]2CNC(=O)CCC)c1 (relative stereo) [Example 58, (trans)-N-[[2-[(3-Dodecyloxy)phenyl]cyclopropyl]methyl] butanamide]
36 | 250 to 600 nM | CCCCCCCCCCCCCCCCOc1cccc([C@@H]2C[C@H]2CNC(=O)CCC)c1 (relative stereo) [Example 59]
37 | 250 to 600 nM | CCCC(=O)NC[C@@H]1C[C@H]1c1cccc(OCC(C)C)c1 (relative stereo) [Example 61]
38 | 40 to 250 nM | CCCC(=O)NC[C@@H]1C[C@H]1c1cccc(OCCCF)c1 (relative stereo) [Example 94]
39 | 5 to 40 nM | CCCC(=O)NC[C@@H]1C[C@H]1c1cccc(OCCCn2cccc2)c1 (relative stereo) [Example 98]
40 | 5 to 40 nM | CCCC(=O)NC[C@@H]1C[C@H]1c1cccc(OCCCCC(C)C)c1 (relative stereo) [Example 100, (trans)-N-[[2-[3-(5-Methylhexyloxy)phenyl]cycloprop-1-yl]methyl] butanamide]
41 | 5 to 40 nM | C=CCCCOc1cccc([C@@H]2C[C@H]2CNC(=O)CCC)c1 (relative stereo) [Example 105]
42 | 5 to 40 nM | CCCC(=O)NC[C@@H]1C[C@H]1c1cccc(OCCC=C(C)C)c1 (relative stereo) [Example 106, (trans)-N-[[2-[3-(4-Methyl-3-penten-1-yloxy)phenyl]cycloprop-1-yl]methyl] butanamide]
43 | 40 to 250 nM | CCCC(=O)NC[C@@H]1C[C@H]1c1cccc(OCCCCC(C)(C)C#N)c1 (relative stereo) [Example 107]
44 | 40 to 250 nM | CCCC(=O)NC[C@@H]1C[C@H]1c1cccc(OCCCC(=O)OC)c1 (relative stereo) [Example 108]
